# Experimental data as given in patent US20230355571A1, “METHOD FOR TREATING VIRAL AND BACTERIAL INFECTION THROUGH INHALATION THERAPY” (priority 2020, published 2023).
# Read-outs that look alike come from different tables or passages of the source.
# What was measured:
# [1] = molecular target: hTRPA1 (Homo sapiens, UniProt O75762); conditions: cited from earlier work; for inhibition of hTRPA1 activation by menthol and AITC: compound at 1 mM, menthol 1 mM, AITC 10 uM
# [2] = molecular target: TRPV1 (Homo sapiens, UniProt Q8NER1); conditions: cited from earlier work
# [3] = molecular target: TRPV4 (Homo sapiens, UniProt Q9HBA0); conditions: cited from earlier work
# [4] = molecular target: TRAPA1 (Homo sapiens, UniProt O75762); conditions: read-out: IC50, TRPA1 antagonist; cited from earlier work
# [5] = system: HEK293 cell; conditions: cited from earlier work
# [6] = system: primary human bronchial epithelial cells; conditions: pretreatment; cited from earlier work
# [7] = system: guinea pigs; conditions: cited from earlier work
# [8] = system: guinea pigs; conditions: pretreatment; cited from earlier work
# [9] = system: rats; conditions: 50 mg/kg orally each day; smoke 1 hr/day for 56 days; cited from earlier work
# [10] = 100 μM, in the presence of 2 mM N-acetyl cysteine; cited from earlier work
# [11] = cited from earlier work
# [12] = system: rats; conditions: oral, rat, cited from earlier work
# [13] = system: mice; conditions: inhalation; cited from earlier work
# [14] = system: CdCl2 treated human lung cells; conditions: 2.5 mM; 75 μM CdCl2; cited from earlier work
# [15] = system: H5N1 influenza A virus; conditions: 5 mM (816 mg/L) to 15 mM (2,448 mg/L), 24 hrs post-infection; cited from earlier work
# [16] = system: COPD patients; conditions: orally 600 mg/day, cited from earlier work
# [17] = system: mice; conditions: intraperitoneal 5 and 10 mg/kg-d pretreatment; cited from earlier work
# [18] = system: mice; conditions: cited from earlier work
# [19] = system: Human respiratory syncytial virus (hRSV); conditions: 14 days prior to challenge and 3 days post challenge; cited from earlier work
# [20] = system: human MonoMac6 cells; conditions: cells pretreated; cited from earlier work
# [21] = system: asthma patients; conditions: human, in vivo; cited from earlier work
# [22] = in vivo; cited from earlier work
# [23] = system: leukemia K562 cells; conditions: in vitro and ex vivo; cited from earlier work
# [24] = system: human lung cancer A549; conditions: in vitro and ex vivo; cited from earlier work
# [25] = system: rats; test: NOAEL, oral, rats; format: in vivo
# Protocol: The NOAEL value for Polysorbate 20 taken orally in rats is greater than 2,500 mg/kg (body weight), the highest dose tested.
# [26] = molecular target: CB2 receptor (Homo sapiens, UniProt P34972); conditions: unit inferred; read-out: Ki, CB2 receptor binding; cited from earlier work
# [27] = system: mice; test: NOAEL, oral, mice
# [28] = system: mice; conditions: oral (species not given; mice); cited from earlier work
# [29] = 2 mL/dose 4 times per day of Table A2 composition
# [30] = Table A2 Preferred Base Viral Nebulizer Liquid, single 2 mL dose, 25 mL ELF, 100 percent retained
# [31] = Table A3 Preferred Viral Respiratory Challenged Nebulizer Liquid, single 2 mL dose, 25 mL ELF, 100 percent retained
# [32] = Table A4 Preferred Bacterial Pneumonia Nebulizer Liquid, single 2 mL dose, 25 mL ELF, 100 percent retained
# [33] = Table A6 Preferred Base Nebulizer Liquid with Amino Acids, single 2 mL dose, 25 mL ELF, 100 percent retained
# Chain of hTRPA1 (O75762 whole entry): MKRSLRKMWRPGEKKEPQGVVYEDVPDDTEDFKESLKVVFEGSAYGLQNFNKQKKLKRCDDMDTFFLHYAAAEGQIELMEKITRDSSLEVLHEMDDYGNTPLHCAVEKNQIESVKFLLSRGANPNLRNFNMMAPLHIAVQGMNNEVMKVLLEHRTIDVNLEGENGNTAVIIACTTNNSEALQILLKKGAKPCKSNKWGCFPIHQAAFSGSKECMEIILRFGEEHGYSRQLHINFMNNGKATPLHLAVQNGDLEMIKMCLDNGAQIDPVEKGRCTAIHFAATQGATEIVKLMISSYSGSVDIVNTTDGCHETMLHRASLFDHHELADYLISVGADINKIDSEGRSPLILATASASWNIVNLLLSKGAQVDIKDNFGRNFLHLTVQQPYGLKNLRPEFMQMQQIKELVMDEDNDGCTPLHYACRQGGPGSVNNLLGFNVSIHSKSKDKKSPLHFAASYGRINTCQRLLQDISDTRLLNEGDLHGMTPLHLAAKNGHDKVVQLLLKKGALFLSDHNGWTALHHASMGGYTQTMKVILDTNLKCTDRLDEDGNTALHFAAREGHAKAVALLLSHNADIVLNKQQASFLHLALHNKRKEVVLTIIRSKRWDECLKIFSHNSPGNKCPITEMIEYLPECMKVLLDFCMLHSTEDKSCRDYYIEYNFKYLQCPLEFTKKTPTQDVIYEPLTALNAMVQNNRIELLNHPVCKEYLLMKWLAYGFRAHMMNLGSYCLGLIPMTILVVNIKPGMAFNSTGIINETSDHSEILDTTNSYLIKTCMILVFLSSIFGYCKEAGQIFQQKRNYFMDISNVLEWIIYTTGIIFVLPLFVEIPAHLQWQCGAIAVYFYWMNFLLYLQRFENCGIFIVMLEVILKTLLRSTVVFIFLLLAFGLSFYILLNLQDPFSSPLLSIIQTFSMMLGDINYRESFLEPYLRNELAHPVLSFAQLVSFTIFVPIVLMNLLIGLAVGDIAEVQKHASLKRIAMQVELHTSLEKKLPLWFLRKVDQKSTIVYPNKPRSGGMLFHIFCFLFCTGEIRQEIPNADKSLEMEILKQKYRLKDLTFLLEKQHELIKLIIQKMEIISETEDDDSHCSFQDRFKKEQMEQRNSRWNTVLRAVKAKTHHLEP
# Chain of CB2 receptor (P34972 whole entry): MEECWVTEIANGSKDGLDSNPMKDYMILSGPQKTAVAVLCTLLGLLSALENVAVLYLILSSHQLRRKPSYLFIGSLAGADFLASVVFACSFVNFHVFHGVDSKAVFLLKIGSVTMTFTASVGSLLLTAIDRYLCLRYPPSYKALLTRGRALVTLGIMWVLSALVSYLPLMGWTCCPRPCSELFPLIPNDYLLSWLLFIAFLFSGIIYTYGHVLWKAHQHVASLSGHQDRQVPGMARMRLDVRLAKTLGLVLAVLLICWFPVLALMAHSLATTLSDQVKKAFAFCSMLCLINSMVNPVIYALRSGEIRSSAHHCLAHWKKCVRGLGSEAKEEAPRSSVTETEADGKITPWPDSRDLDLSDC
# Chain of TRAPA1 (O75762 whole entry): as the sequence (O75762 whole entry) above
# Chain of TRPV1 (Q8NER1 whole entry, species assumed): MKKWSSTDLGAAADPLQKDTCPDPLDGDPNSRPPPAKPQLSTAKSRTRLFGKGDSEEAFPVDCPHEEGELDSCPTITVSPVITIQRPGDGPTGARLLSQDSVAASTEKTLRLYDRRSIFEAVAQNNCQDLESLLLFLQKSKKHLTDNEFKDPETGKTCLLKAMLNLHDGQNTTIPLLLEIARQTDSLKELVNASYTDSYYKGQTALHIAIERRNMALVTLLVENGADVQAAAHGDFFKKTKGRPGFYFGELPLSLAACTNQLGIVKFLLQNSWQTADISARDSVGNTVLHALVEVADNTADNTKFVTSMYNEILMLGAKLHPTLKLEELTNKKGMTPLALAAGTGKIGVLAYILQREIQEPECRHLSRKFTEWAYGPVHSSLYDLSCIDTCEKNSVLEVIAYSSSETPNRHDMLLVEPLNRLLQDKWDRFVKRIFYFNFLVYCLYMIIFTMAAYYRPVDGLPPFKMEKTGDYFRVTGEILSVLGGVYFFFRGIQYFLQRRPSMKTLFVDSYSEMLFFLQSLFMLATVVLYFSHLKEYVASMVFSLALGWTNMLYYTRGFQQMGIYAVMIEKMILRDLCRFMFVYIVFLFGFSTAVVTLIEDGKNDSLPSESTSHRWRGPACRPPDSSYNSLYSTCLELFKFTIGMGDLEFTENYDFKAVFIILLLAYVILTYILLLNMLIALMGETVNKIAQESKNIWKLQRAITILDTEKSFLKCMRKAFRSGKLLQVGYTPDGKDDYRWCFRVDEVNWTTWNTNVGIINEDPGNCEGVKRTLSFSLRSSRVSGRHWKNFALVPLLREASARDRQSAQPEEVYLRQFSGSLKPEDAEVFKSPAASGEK
# Chain of TRPV4 (Q9HBA0 whole entry, species assumed): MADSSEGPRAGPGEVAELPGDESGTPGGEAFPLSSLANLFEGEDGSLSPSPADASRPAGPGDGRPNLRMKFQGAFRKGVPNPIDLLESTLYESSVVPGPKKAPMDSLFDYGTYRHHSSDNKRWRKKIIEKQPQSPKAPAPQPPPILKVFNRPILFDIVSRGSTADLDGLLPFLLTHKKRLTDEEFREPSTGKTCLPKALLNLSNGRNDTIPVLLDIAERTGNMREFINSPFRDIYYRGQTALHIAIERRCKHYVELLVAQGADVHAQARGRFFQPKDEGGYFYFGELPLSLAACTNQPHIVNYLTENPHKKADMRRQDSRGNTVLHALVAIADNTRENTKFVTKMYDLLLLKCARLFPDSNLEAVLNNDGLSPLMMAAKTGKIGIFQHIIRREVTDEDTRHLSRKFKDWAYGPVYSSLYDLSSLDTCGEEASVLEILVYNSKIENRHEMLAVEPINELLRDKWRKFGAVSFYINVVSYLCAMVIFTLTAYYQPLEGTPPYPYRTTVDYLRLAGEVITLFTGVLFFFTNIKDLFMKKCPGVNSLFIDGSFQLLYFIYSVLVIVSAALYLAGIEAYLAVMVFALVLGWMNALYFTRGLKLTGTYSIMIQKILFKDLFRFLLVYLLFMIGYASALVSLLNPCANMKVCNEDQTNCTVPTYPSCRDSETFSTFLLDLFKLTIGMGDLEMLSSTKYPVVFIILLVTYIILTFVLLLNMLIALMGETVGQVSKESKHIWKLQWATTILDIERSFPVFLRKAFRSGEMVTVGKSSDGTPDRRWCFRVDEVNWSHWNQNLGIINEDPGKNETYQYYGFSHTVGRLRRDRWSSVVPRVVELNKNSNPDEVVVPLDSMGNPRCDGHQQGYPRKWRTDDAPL
compound,measurement,setting,value
CC12CCC(C1)C(C)(C)C2O (stereo not drawn) [fenchyl alcohol],activation of hTRPA1,[1],did not activate
same,inhibition of hTRPA1 activation by menthol and AITC,[1],completely inhibited
COc1cc(O)cc(O)c1C(=O)/C=C/c1ccccc1 [cardamonin],effect on TRPV1,[2],not affecting
same,effect on TRPV4,[3],not affecting
same,IC50,[4],454 nM
same,HEK293 cell viability,[5],did not significantly reduce
CC(C)c1ccc(NC(=O)Cn2cnc3c2c(=O)n(C)c(=O)n3C)cc1 [HC-030031],Ca^2+ influx induced by cigarette smoke extract,[6],similar
same,"tussive response induced by TRPA1 agonists (AITC, acrolein, crotonaldehyde, cinnamaldehyde)",[7],attenuated
CC1=CC(=O)C(C(C)C)=CC1=O [thymoquinone],bronchoalveolar lavage fluid IL-8,[8],significantly decreased
same,bronchoalveolar lavage fluid LTB4,[8],did not significantly change
epigallocatechin-3-gallate,"cigarette smoke-induced oxidative stress and neutrophilic inflammation, airway mucus production and collagen deposition",[9],ameliorated
same,bronchoalveolar lavage fluid IL-8,[8],significantly reduced
same,bronchoalveolar lavage fluid LTB4,[8],significantly reduced
same,increase of cellular uptake,[10],2.5 times
C=C1CC/C=C(\C)CC[C@@H]2[C@@H]1CC2(C)C [B-Caryophyllene],LD50,"[11]; oral, rat",">5,000 mg/kg"
same,NOAEL,[12]; 90 d,>700 mg/kg
CC(=O)N[C@@H](CS)C(=O)O [N-acetyl cysteine],Ca^2+ influx induced by cigarette smoke extract,[6],prevented
same,lung fibrosis induced by bleomycin,[13],inhibited
same,morphology and viability of CdCl2 treated human lung cells,[14],restored the morphology and viability
same,LD50,[11]; in vivo,5050 mg/kg
same,LD50,"[11]; oral, rat","5,050 mg/kg"
same,estimated concentration in the epithelial lining fluid of the lungs,human,889 µg/mL
same,"H5N1-induced cytopathogenic effects, virus-induced apoptosis, and viral yields",[15],reduces
same,sputum eosinophil cationic protein concentrations,[16]; COPD patients,reduced
same,lung lavage glutathione levels,[16],increased
same,superoxide production by alveolar macrophages,[16],reduced
COc1ccc2cc3[n+](cc2c1OC)CCc1cc2c(cc1-3)OCO2 [berberine],cigarette smoke-induced airway inflammation and mucus production,[17],inhibited
Oc1ccc(C=Cc2cc(O)cc(O)c2)cc1 [Resveratrol],cigarette smoke-induced lung inflammation,[18],decreased
Cn1c(=O)c2c(CC(=O)Nc3nc(-c4ccc(F)c(C(F)(F)F)c4F)cs3)csc2n(C)c1=O [GRC 17536],citric acid induced tussive response,[7],inhibited
OC[C@@H](O)[C@H](O)[C@@H](O)CO [xylitol],lung virus titers versus phosphate-buffered saline controls,[19],significantly greater reductions
NCCS(=O)(=O)O [Taurine],Concentration in Epithelial Lining Fluid,human,2670 µg/mL
"CC1(C)[C@@H]2CC[C@@]1(C)[C@](C)(O)C2 [2-methylosoborneol, 2-methylisoborneol]",IC50,"[1]; TRPA1 activated by 20 uM AITC, read-out: IC-50 concentration, inactivation of TRPA1 activation",120000 nM
same,activation of hTRPA1,[1],did not activate
same,inhibition of hTRPA1 activation by menthol and AITC,[1],completely inhibited
"N[C@@H](CCC(=O)N[C@@H](CS)C(=O)NCC(=O)O)C(=O)O [glutathione, γ-L-glutamyl-L-cysteinyl-glycine]",cigarette smoke extract-mediated IL-8 release,[20],significantly inhibited
same,change from baseline FEV1,[21],−19%
same,change from baseline total pulmonary resistance,[21],+61%
same,adverse effects of aerosol administration,[22],no adverse effects
same,period epithelial lung fluid glutathione remained elevated,[22],2 h
same,LD50,[11]; in vivo,5000 mg/kg
same,LD50,"[11]; oral, mouse","5,000 mg/kg"
same,estimated concentration in the epithelial lining fluid of the lungs,human,889 µg/mL
O=C1CC2CC[C@H]1C2 [norcamphor],activation of hTRPA1,[1],did not activate
"CCNC(=O)CC[C@H](N)C(=O)O [theanine, L-theanine]",growth of K562 cells,[23],significantly suppressed
same,growth of A549 cells,[24],significantly suppressed
same,Concentration in Epithelial Lining Fluid,human,2670 µg/mL
CC1(C)C2CCC1(C)C(O)C2 (stereo not drawn) [borneol],activation of hTRPA1,[1],did not activate
same,inhibition of hTRPA1 activation by menthol and AITC,[1],completely inhibited
CCCCCCCCCCCC(=O)OCCOCCOCCOCCOCCOCCOCCOCCOCCOCCOCCOCCOCCOCCOCCOCCOCCOCCOCCOCCOCC(OCCOCCOCCOCCOCCOCCOCCOCCOCCOCCOCCOCCOCCOCCOCCOCCOCCOCCOCCOCCO)C1OCC(OCCOCCOCCOCCOCCOCCOCCOCCOCCOCCOCCOCCOCCOCCOCCOCCOCCOCCOCCOCCO)C1OCCOCCOCCOCCOCCOCCOCCOCCOCCOCCOCCOCCOCCOCCOCCOCCOCCOCCOCCOCCO (stereo not drawn) [Polysorbate 20],factor NOAEL over daily inhaled dose,[25]; [29],"2,980 times"
same,NOAEL for a 62 kg adult human,[25]; extrapolated from rat NOAEL,"155,000 mg per day"
same,LD50,[11]; in vivo,"3,850 mg/kg"
same,Concentration in Epithelial Lining Fluid,[30],530 µg/mL
same,Concentration in Epithelial Lining Fluid,[31],1070 µg/mL
same,Concentration in Epithelial Lining Fluid,[32],1330 µg/mL
same,Concentration in Epithelial Lining Fluid,[33],1330 µg/mL
same,Concentration in Epithelial Lining Fluid,human,1870 µg/mL
same,NOAEL,[12],"2,500 mg/kg"
"CCCCC/C=C\C/C=C\C/C=C\C/C=C\CCCC(=O)OC(CO)CO [Table 2-AG, 2-arachidonoyl-glycerol, reference compound]",Ki,[26],650 nM
C/C1=C2/[N-][C@H]([C@H](CC(N)=O)[C@@]2(C)CCC(=O)NC[C@@H](C)OP(=O)([O-])O[C@H]2[C@@H](O)[C@@H](n3cnc4cc(C)c(C)cc43)O[C@@H]2CO)[C@]2(C)N=C(/C(C)=C3N=C(/C=C4N=C1[C@@H](CCC(N)=O)C\4(C)C)[C@@H](CCC(N)=O)[C@]\3(C)CC(N)=O)[C@@H](CCC(N)=O)[C@]2(C)CC(N)=O.[CH3-].[Co+3] [methylcobalamin],factor NOAEL over daily inhaled dose,[27]; [29],"596,254 times"
same,NOAEL for a 62 kg adult human,[27]; extrapolated from mouse NOAEL,"31,000 mg per day"
same,Concentration in Epithelial Lining Fluid,[30],0.5 µg/mL
same,Concentration in Epithelial Lining Fluid,[31],1.1 µg/mL
same,Concentration in Epithelial Lining Fluid,[32],1.1 µg/mL
same,Concentration in Epithelial Lining Fluid,[33],1.1 µg/mL
same,NOAEL,[28],500 mg/kg
CC12CCC(CC1=O)C2(C)C (stereo not drawn) [camphor],activation of hTRPA1,[1],did not activate
